SMILES strings stand for the structures.

Series [1] is described as follows: Drug uptake in human HepG2 cells at 10 uM measured after 24 hrs by confocal laser scanning microscopic analysis. The format is ADME, cell-based. The settings on record: hepg2, 24 h.
A short description of series [2]: Drug metabolism in human HepG2 cells assessed as SN38 release at 10 uM measured after 24 hrs by microplate reader analysis. The format is ADME, cell-based. To be noted: hepg2, 24 h.
Series [3] has as its system HepG2. The series can be described thus: Potency index, ratio of compound uptake to irinotecan uptake in human HepG2 cells at 10 uM measured after 24 hrs by microplate reader analysis. The format is ADME, cell-based. The settings on record: hepg2, 24 h.
A short description of series [4]: Drug uptake in human A549 cells at 10 uM measured after 24 hrs by confocal laser scanning microscopic analysis. The format is ADME, cell-based. To be noted: a549, 24 h.
Series [5] concerns HepG2. As to the kind of experiment: Antiproliferative activity against human HepG2 cells assessed as inhibition of cell proliferation after 72 hrs by MTT assay. The format is functional, cell-based. To be noted: HepG2, 72 h. Background: Tetrazolium dyes change colour on reduction, which living cells bring about.
The nature of series [6]: Drug uptake in human HepG2 cells assessed as mean fluorescence intensity at 10 uM measured after 1 hr by flow cytometry analysis (reference value: 2.74). The settings on record: hepg2, 1 h. The format is ADME, cell-based. In general terms: In flow cytometry, cells or beads pass a laser one at a time.
Series [7] is described as follows: Solubility of the compound in water. The format is physicochemical. The settings on record: buffer.
Series [8] can be described thus: Drug uptake in human HepG2 cells at 10 uM measured after 1 hr by fluorescence analysis. The settings on record: hepg2, 1 h. The class given is ADME, cell-based.

For the molecule `CCc1c2c(nc3ccc(OC(=O)N4CCC(CNC(=O)c5ccc(B(O)O)cc5)CC4)cc13)-c1cc3c(c(=O)n1C2)COC(=O)[C@]3(O)CC`, the Drug uptake entry in series [1] and in series [4] was “Active” in each case. In series [2], the Drug metabolism entry is on record as “Metabolite_Notdetected”. In addition, the Ratio with HepG2 [3] is on record as 7. Further, the IC50 in the series on HepG2 [5] worked out at 1.59 µM.
For `CCN(CCn1cc(COCCOCCOCCOCCO)nn1)c1ccc(/C=C/C2=CC(=C(C#N)C#N)c3ccccc3O2)cc1`, the Flu intensity in series [6] stood at 64.89. The solubility result in series [7] is reported as “Soluble”. For the same molecule, in series [8], the Drug uptake result is “Active”.
Regarding `CCc1c2c(nc3ccc(OC(=O)N4CCC(N5CCCCC5)CC4)cc13)-c1cc3c(c(=O)n1C2)COC(=O)[C@]3(O)CC`, the IC50 in the series on HepG2 [5] was found to be 0.95 µM.
On to `CCN(CCn1cc(COCCOCCOCCOCCNC(=O)Nc2ccc3c(c2)B(O)OC3)nn1)c1ccc(/C=C/C2=CC(=C(C#N)C#N)c3ccccc3O2)cc1`, for which the Flu intensity in series [6] is reported as 86.91. The Drug uptake result in series [8] was “Active”.
For `CCN(CCn1cc(COCCOCCOCCOCCNC(=O)c2ccc(B(O)O)cc2)nn1)c1ccc(/C=C/C2=CC(=C(C#N)C#N)c3ccccc3O2)cc1`, the Flu intensity in series [6] came out at 99.42. Besides, the Drug uptake entry in series [8] is reported as “Active”.
On to `CCN(CCn1cc(COCCOCCOCCOCCNC(=O)c2cc(B(O)O)cc([N+](=O)[O-])c2)nn1)c1ccc(/C=C/C2=CC(=C(C#N)C#N)c3ccccc3O2)cc1`, for which, in series [6], the Flu intensity came to 11.83. In series [8], the Drug uptake entry is listed as “Active”.
Consider `CCN(CCn1cc(COCCOCCOCCOCCNC(=O)c2cccc([N+](=O)[O-])c2)nn1)c1ccc(/C=C/C2=CC(=C(C#N)C#N)c3ccccc3O2)cc1`, for which, in series [6], the Flu intensity stood at 28.12. The solubility entry in series [7] is recorded as “Soluble”. In addition, the Drug uptake entry in series [8] is “Active”.
For the molecule `CCc1c2c(nc3ccc(OC(=O)N4CCC(CNC(=O)Nc5ccc6c(c5)B(O)OC6)CC4)cc13)-c1cc3c(c(=O)n1C2)COC(=O)[C@]3(O)CC`, the Drug uptake entry in series [1] and in series [4] was “Active” in each case. Further, the Drug metabolism result in series [2] is given as “Metabolite_Notdetected”. The Ratio with HepG2 [3] was 3. Also, in the series with HepG2 [5], the IC50 stood at 0.84 µM.

What is called IC50 is the concentration at which inhibition is half-maximal.

For the origin of these results see ChEMBL document CHEMBL4627296, “Enhanced cellular uptake efficiency of DCM probes or SN38 conjugating with phenylboronic acids” (Bioorg Med Chem, 2020).
